# pEC50: −log10 of the molar value. Structures can show the parent of a compound that is named as a salt.
# Target: T1, recombinant human TGR5 (Homo sapiens, UniProt Q8TDU6)
# T1 construct: expressed in transfected cells
# T1 sequence (Q8TDU6 1-330): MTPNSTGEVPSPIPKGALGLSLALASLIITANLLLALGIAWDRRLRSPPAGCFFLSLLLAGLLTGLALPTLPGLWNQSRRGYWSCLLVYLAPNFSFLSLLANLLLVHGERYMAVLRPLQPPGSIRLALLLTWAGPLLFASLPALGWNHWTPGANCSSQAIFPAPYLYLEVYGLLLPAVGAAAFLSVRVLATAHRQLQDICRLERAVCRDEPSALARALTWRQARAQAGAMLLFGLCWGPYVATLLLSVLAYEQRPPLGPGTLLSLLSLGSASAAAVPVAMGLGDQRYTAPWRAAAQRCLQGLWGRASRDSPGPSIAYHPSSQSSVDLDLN
# Test: cAMP assay (cAMP accumulation, HTRF) in CHOK1 cells stably expressing TGR5
# Assay type: cell-based
# Conditions: CHOK1 cells stably expressing human TGR5, 30 minutes at RT, 1% DMSO
# Procedure, shortened: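 Agonist-induced cAMP accumulation: stable TGR5-CHOK1 cells treated 30 min at RT with compound (1% DMSO) plus 0.1 mM IBMX. HTRF ratio converted to nM cAMP via standard curve; EC50 from four-parameter logistic fit, midpoint between baseline and maximum.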
row,Compound,pEC50
1,"Cc1cccc(OCCCC(=O)N2CCCc3c(-c4cnn(Cc5cccc(N(C)C(=O)N(C)CC[N+](C)(C)C)c5)c4)cccc32)c1C [Example 472, 2-(3-(3-((4-(1-(4-(2,3-Dimethylphenoxy)butanoyl)-1,2,3,4-tetrahydroquinolin-5-yl)-1H-pyrazol-1-yl)methyl)phenyl)-1,3-dimethylureido)-N,N,N-trimethylethanaminium, TFA salt]",5.73
2,"Cc1cccc(OCCCC(=O)N2CCCc3c(-c4cnn(Cc5cccc(C(=O)N(CC(=O)O)CC(=O)O)c5)c4)cccc32)c1C [Example 475, 2,2′-(3-((4-(1-(4-(2,3-Dimethylphenoxy)butanoyl)-1,2,3,4-tetrahydroquinolin-5-yl)-1H-pyrazol-1-yl)methyl)benzoylazanediyl)diacetic acid]",5.59
3,"Cc1cccc(OCCCC(=O)N2CCCc3c(-c4cnn(CC(=O)C(C)(C)CC(=O)O)c4)cccc32)c1C [Example 493, 5-(4-(1-(4-(2,3-Dimethylphenoxy)butanoyl)-1,2,3,4-tetrahydroquinolin-5-yl)-1H-pyrazol-1-yl)-3,3-dimethyl-4-oxopentanoic acid]",5.38
4,"Cc1cccc(OCCCC(=O)N2CCOc3c(-c4cnn(Cc5cccc(S(=O)(=O)N[C@@H](CCC[N+](C)(C)C)C(=O)O)c5)c4)cccc32)c1C [Example 505, (S)-4-Carboxy-4-(3-((4-(4-(4-(2,3-dimethylphenoxy)butanoyl)-3,4-dihydro-2H-benzo [b][1,4]oxazin-8-yl)-1H-pyrazol-1-yl)methyl)phenyl-sulfonamido)-N,N, N-trimethylbutan-1-aminium, TFA salt]",5.76
5,"Cc1cccc(OCCCC(=O)N2CCCc3c(-c4cnn(Cc5cccc(S(=O)(=O)N[C@@H](CCC[N+](C)(C)C)C(=O)O)c5)c4)cccc32)c1C [Example 507, (S)-4-Carboxy-4-(3-((4-(1-(4-(2,3-dimethylphenoxy)butanoyl)-1,2,3,4-tetrahydroquinolin-5-yl)-1H-pyrazol-1-yl)methyl)phenyl-sulfonamido)-N,N, N-trimethylbutan-1-aminium]",5.68
6,"Cc1cccc(OCCCC(=O)N2CCCOc3c(-c4cnn(Cc5cccc(N(C)C(=O)NCS(=O)(=O)O)c5)c4)cccc32)c1C [Example 526, (3-(3-((4-(5-(4-(2,3-Dimethylphenoxy)butanoyl)-2,3,4,5-tetrahydrobenzo [b][1,4]oxazepin-9-yl)-1H-pyrazol-1-yl)methyl)phenyl)-3-methylureido) methanesulfonic acid]",5.82
7,"Cc1c(Cl)cccc1OCCOC(=O)N1C[C@@H]2C[C@@H]2c2c(-c3cnn(Cc4cccc(NC(=O)NCS(=O)(=O)O)c4)c3)cccc21 [Example 527, (3-(3-((4-((1aR,7bS)-3-((2-(3-Chloro-2-methyl-phenoxy)ethoxy)carbonyl)-1a,2,3,7b-tetrahydro-1H-cyclopropa[c]quinolin-7-yl)-1H-pyrazol-1-yl)methyl)phenyl)ureido) methanesulfonic acid]",6.74
8,"Cc1c(Cl)cccc1OCCCC(=O)N1CCSc2c(-c3cnn(Cc4c(F)cc(C(=O)NCCS(=O)(=O)O)cc4Cl)c3)cccc21 [Example 574, 2-(3-Chloro-4-((4-(4-(4-(3-chloro-2-methylphenoxy)butanoyl)-3,4-dihydro-2H-benzo[b][1,4]thiazin-8-yl)-1H-pyrazol-1-yl)methyl)-5-fluorobenzamido) ethanesulfonic acid]",7.64
9,"Cc1cccc(OCCCC(=O)N2CCSc3c(-c4cnn(Cc5c(F)cc(C(=O)NCCC(=O)O)cc5Cl)c4)cccc32)c1C [Example 575, 3-(3-Chloro-4-((4-(4-(4-(2,3-dimethylphenoxy)butanoyl)-3,4-dihydro-2H-benzo[b][1,4]thiazin-8-yl)-1H-pyrazol-1-yl)methyl)-5-fluorobenzamido) propanoic acid]",7.31

# More lines, now with the values ahead:
row,pEC50,Compound
1,5.81,"Cc1cccc(OCCCC(=O)N2CCCc3c(-c4cnn(Cc5cccc(C(=O)N(C)[C@@H](CC(=O)O)C(=O)O)c5)c4)cccc32)c1C [Example 481, (S)-2-(3-((4-(1-(4-(2,3-Dimethylphenoxy)butanoyl)-1,2,3,4-tetrahydroquinolin-5-yl)-1H-pyrazol-1-yl)methyl)-N-methylbenzamido)succinic acid]"
2,6.71,"Cc1cccc(OCCCC(=O)N2CCCc3c(-c4cnn(Cc5cccc(NC(=O)C(N)C(O)(C(F)(F)F)C(F)(F)F)c5)c4)cccc32)c1C (stereo not drawn) [Example 500, 2-Amino-N-(3-((4-(1-(4-(2,3-dimethylphenoxy)butanoyl)-1,2,3,4-tetrahydroquinolin-5-yl)-1H-pyrazol-1-yl)methyl)phenyl)-4,4,4-trifluoro-3-hydroxy-3-(trifluoromethyl) butanamide]"
3,5.79,"Cc1c(Cl)cccc1OCCCC(=O)N1CCCOc2c(-c3cnn(Cc4cccc(NS(=O)(=O)c5cccc(C(=O)O)c5)c4)c3)cccc21 [Example 506, 3-(N-(3-((4-(5-(4-(3-Chloro-2-methylphenoxy)butanoyl)-2,3,4,5-tetrahydrobenzo [b][1,4]oxazepin-9-yl)-1H-pyrazol-1-yl)methyl)phenyl)sulfamoyl) benzoic acid]"
4,6.75,"Cc1c(Cl)cccc1OCCCC(=O)N1CCCOc2c(-c3cnn(Cc4cccc(NC(=O)NCC(=O)O)c4)c3)cccc21 [Example 521, 2-(3-(3-((4-(5-(4-(3-Chloro-2-methylphenoxy)butanoyl)-2,3,4,5-tetrahydrobenzo[b] [1,4]oxazepin-9-yl)-1H-pyrazol-1-yl)methyl)phenyl)ureido)acetic acid]"
5,6.72,"Cc1c(Cl)cccc1OCCCC(=O)N1CCCc2c(-c3cnn(Cc4cccc(NC(=O)N[C@H](CCC(=O)O)C(=O)O)c4)c3)cccc21 [Example 534, (R)-2-(3-(3-((4-(1-(4-(3-Chloro-2-methylphenoxy)butanoyl)-1,2,3,4-tetra-hydroquinolin-5-yl)-1H-pyrazol-1-yl)methyl)phenyl)ureido) pentanedioic acid]"
6,5.62,"Cc1cccc(OCCCC(=O)N(C)c2cccc(-c3cnn(Cc4cccc(C(=O)NCCC(=O)O)c4)c3)c2)c1C [Example 552, 3-(3-((4-(3-(4-(2,3-Dimethylphenoxy)-N-methylbutanamido)phenyl)-1H-pyrazol-1-yl)methyl)benzamido)propanoic acid]"
7,7.31,"Cc1c(Cl)cccc1OCCCC(=O)N1CCSc2c(-c3cnn(Cc4cccc(C(=O)NCCS(=O)(=O)O)c4)c3)cccc21 [Example 564, 2-(3-((4-(4-(4-(3-Chloro-2-methylphenoxy)butanoyl)-3,4-dihydro-2H-benzo[b][1,4]thiazin-8-yl)-1H-pyrazol-1-yl)methyl)benzamido) ethanesulfonic acid]"
8,7.32,"Cc1c(Cl)cccc1OCCCC(=O)N1CCSc2c(-c3cnn(Cc4cccc(C(=O)NCS(=O)(=O)O)c4)c3)cccc21 [Example 565, (3-((4-(4-(4-(3-Chloro-2-methylphenoxy)butanoyl)-3,4-dihydro-2H-benzo[b][1,4]thiazin-8-yl)-1H-pyrazol-1-yl)methyl)benzamido) methanesulfonic acid]"
9,7.46,"Cc1c(Cl)cccc1OCCCC(=O)N1CCSc2c(-c3cnn(Cc4cccc(C(=O)NCC(=O)O)c4)c3)cccc21 [Example 566, 2-(3-((4-(4-(4-(3-Chloro-2-methylphenoxy)butanoyl)-3,4-dihydro-2H-benzo[b][1,4]thiazin-8-yl)-1H-pyrazol-1-yl)methyl)benzamido)acetic acid]"

# — patent US9062028B2, “Bicyclic nitrogen containing heteroaryl TGR5 receptor modulators” (Bristol-Myers Squibb Company, priority 2011, dated 2015)
